{"source": "paper PMC3470887", "about": "“Protegrin-1 Inhibits Dengue NS2B-NS3 Serine Protease and Viral Replication in MK2 Cells” (Journal of Biomedicine and Biotechnology, 2012)", "key": {"dengue NS2B-NS3pro": {"biological_target": "dengue NS2B-NS3pro (Dengue virus type 2, UniProt P14340)", "sequence (P14340 1394-1440 limits assumed)": "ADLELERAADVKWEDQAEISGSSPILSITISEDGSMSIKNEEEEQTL", "sequence (P14340 1476-1660 limits assumed)": "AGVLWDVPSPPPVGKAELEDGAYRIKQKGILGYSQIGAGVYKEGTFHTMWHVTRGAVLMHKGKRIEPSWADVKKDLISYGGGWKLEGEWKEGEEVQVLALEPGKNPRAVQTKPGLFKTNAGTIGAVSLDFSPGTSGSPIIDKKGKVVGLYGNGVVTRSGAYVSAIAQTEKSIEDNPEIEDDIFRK", "assay": "Dengue NS2B-NS3pro protease inhibition assay (fluorogenic substrate Boc-Gly-Arg-Arg-MCA)", "assay_type": "biochemical, DENV-2", "procedure": "The bioassay used in this study was modified from the method published by Kiat and coworkers. Reaction mixtures with total volume of 200 μL were prepared. These reaction mixtures consisted of 100 μM fluorogenic peptide substrate (Boc-Gly-Arg-Arg-MCA), 2 μM NS2B-NS3pro complex, with or without PG-1 of varying concentrations, buffered at pH 8.5 with 200 mM Tris-HCl. The PG-1 was initially prepared in Tris-HCl buffer and assayed at five different concentrations. The reaction mixtures without fluorogenic peptide substrate were firstly incubated at 37°Cfor 30 minutes. Subsequently, the substrate was added and the mixture was further incubated at the same temperature for 30 minutes. Triplicates were performed for all measurements and the readings were taken using Tecan Infinite M200 Pro fluorescence spectrophotometer. Substrate cleavage was optimized at the emission at 440 nm upon excitation at 350 nm. The readings were then used for calculating Km values of peptide substrate and IC50 values of peptide inhibitors using nonlinear regression models in GraphPad Prism 5.01 software."}, "DENV-2": {"test_system": "DENV-2", "assay": "DENV-2 replication in infected MK2 cells, viral RNA by real-time PCR", "assay_type": "cell-based, Dengue virus serotype 2", "conditions": "inferred from lower inhibition percentage of low concentrations at 48 and 72 hrs versus 24 hrs", "procedure": "The MK2 cell lines were grown in a 24-well tissue culture plate (1 × 10^5 cells/well), incubated 24 hrs under optimal conditions (37°C and 5% CO2). DENV-2 was added to the wells (MOI of 2) followed by incubation for 1 hr with gentle shaking every 10 min for optimal virus to cell contact. The virus supernatant was removed, and the cells were washed twice with fresh serum free DMEM media to remove residual virus. New complete DMEM media containing 2.5, 7.5 and 12.5 μM of PG-1 were added and the cultures were incubated for 24, 48 and 72 hrs. Afterwards, cellular supernatants were collected and stored at −80°C for viral quantification by real-time PCR.\nFor quantification of DENV-2 copies, the standard curve was generated by 10-fold serial dilution of known copies of DENV-2 RNA. Viral RNA was extracted from culture supernatant using QIAmp viral RNA minikit (QIAGEN, Germany) according to the manufacturer's instructions. A fragment located at the 5′UTR region of the virus genome was used to generate the primers. One-step RT-PCR using SyBr Green Master Kit (Qiagen, Germany) was used to conduct absolute quantification using ABI7300 machine from Applied Biosystems (Foster City, CA). […] Results were analyzed using Sequence Detection Software Version 1.3 (Applied Biosystems, Foster City, CA, USA)."}}}
{"smiles": "CC(C)C[C@H](NC(=O)[C@H](CCCNC(=N)N)NC(=O)CNC(=O)CNC(=O)[C@@H](N)CCCNC(=N)N)C(=O)N[C@H]1CSSC[C@@H](C(=O)N[C@H](C(=O)NCC(=O)N[C@@H](CCCNC(=N)N)C(N)=O)C(C)C)NC(=O)[C@H](C(C)C)NC(=O)[C@@H]2CSSC[C@H](NC(=O)[C@H](Cc3ccc(O)cc3)NC1=O)C(=O)N[C@@H](CCCNC(=N)N)C(=O)N[C@@H](CCCNC(=N)N)C(=O)N[C@@H](CCCNC(=N)N)C(=O)N[C@@H](Cc1ccccc1)C(=O)N2", "note": "[PG-1]", "values": [{"measurement": "IC50", "setting": "dengue NS2B-NS3pro; 2 μM NS2B-NS3pro, 100 μM Boc-Gly-Arg-Arg-MCA, 200 mM Tris-HCl pH 8.5, 37°C, 30 min pre-incubation + 30 min, triplicates, nonlinear regression GraphPad Prism", "value": 11.7, "unit": "µM"}, {"measurement": "inhibition at 40 µM", "setting": "dengue NS2B-NS3pro; PG-1 at 40 μM, assayed at five concentrations, 10–160 μM", "value": 95.7, "unit": "%"}, {"measurement": "Ki", "setting": "dengue NS2B-NS3pro; kinetic assay, PG-1 0, 2.5, 5, 10 and 20 μM, Michaelis-Menten nonlinear regression, GraphPad Prism, read-out: Ki (inhibition constant)", "value": 5.85, "unit": "µM"}, {"measurement": "PG-1 stability in culture media", "setting": "DENV-2", "value": "declined with longer incubation in culture media"}]}
